Results on 15 compounds are retold here after patent US20060148842A1, “Nepetalactams and N-substituted derivatives thereof” (priority 2004, published 2006).

The assay deals with Aedes aegypti mosquitoes. The assay is described as follows: in vitro Gupta box landing assay (insect repellency). Particulars: 20 min; 1.0% (w/v) in IPA, 25 μL on Baudruche membrane; landings of female Aedes aegypti over 20 min vs IPA control. The protocol: The products of Examples 1-15 were evaluated for insect repellency against Aedes aegypti mosqutioes in the in vitro Gupta box landing assay. In this method a chamber contained 5 wells, each covered by a Baudruche (animal intestine) membrane. Each well was filled with bovine blood containing sodium citrate (to prevent clotting) and ATP (72 mg ATP disodium salt per 26 ml of blood), and heated to 37° C. A volume of 25 μL of isopropyl alcohol (IPA) containing one test specimen or control was applied to each membrane. The concentrations were 1.0% (w/v) in IPA. The negative control was membrane surface treated with neat IPA, and the positive control was a 1.0% (w/v) solution of DEET.
After 5 min, approximately 250 4-day-old female Aedes aegypti mosquitoes were introduced into the chamber. The number of mosquitoes probing the membranes for each treatment was recorded at 2 min intervals over 20 min. The results obtained in this manner with respect to the compounds of Examples 1˜12 are depicted, respectively, in FIGS. 1-12 (labeled as Examples 16˜27) wherein each datum represents the mean of five replicate experiments.
where C=the total number of landings on the IPA control well, and T=the total number of landings on the test solution well. The % mean repellencies at 1% (w/v) with respect to the compounds of Examples 1˜15 are depicted in Table 2, wherein R refers to the substituent on nepetalactam.
As for `C#CCN1C=C(C)[C@H]2CC[C@H](C)[C@H]2C1=O` [IIIk, (4aS,7S,7aR)-2-n-propargyl-4,7-dimethyl-2,4a,5,6,7,7a-hexahydro-1H-cyclopenta[c]pyridin-1-one], the pest or weed control – broadly, the degree to which the test organism was suppressed or injured, in per cent – at 10000 µg/mL amounted to 95.6%.
As for `CC1=CNC(=O)[C@H]2[C@@H]1CC[C@@H]2C` [II, (4aS,7S,7aR)-4,7-dimethyl-2,4a,5,6,7,7a-hexahydro-1H-cyclopenta [c]pyridin-1-one], the figure is 66%.
Under `CC1=CN(C2CCCCC2)C(=O)[C@H]2[C@@H]1CC[C@@H]2C` [IIIh, (4aS,7S,7aR)-2-n-cyclohexyl-4,7-dimethyl-2,4a,5,6,7,7a-hexahydro-1H-cyclopenta[c]pyridin-1-one] stands 98.9%.
In turn, `CC1=CN(c2ccc(Cl)cc2)C(=O)[C@H]2[C@@H]1CC[C@@H]2C` [Vb, (4aS,7S,7aR)-2-(4-chlorophenyl)-4,7-dimethyl-2,4a,5,6,7,7a-hexahydro-1H-cyclopenta[c]pyridin-1-one] gave a pest or weed control at 10000 µg/mL of 75.3%.
With `CCCN1C=C(C)[C@H]2CC[C@H](C)[C@H]2C1=O` [IIIc, (4aS,7S,7aR)-2-n-propyl-4,7-dimethyl-2,4a,5,6,7,7a-hexahydro-1H-cyclopenta[c]pyridin-1-one], the pest or weed control at 10000 µg/mL came to 99.8%.
As for `CCCCN1C=C(C)[C@H]2CC[C@H](C)[C@H]2C1=O` [IIId, (4aS,7S,7aR)-2-n-butyl-4,7-dimethyl-2,4a,5,6,7,7a-hexahydro-1H-cyclopenta[c]pyridin-1-one], the figure is 97.3%; as for `CC1=CN(c2ccc(Br)cc2)C(=O)[C@H]2[C@@H]1CC[C@@H]2C` [Vc, (4aS,7S,7aR)-2-(4-bromophenyl)-4,7-dimethyl-2,4a,5,6,7,7a-hexahydro-1H-cyclopenta[c]pyridin-1-one], 41.5%; as for `CCCCCN1C=C(C)[C@H]2CC[C@H](C)[C@H]2C1=O` [IIIe, (4aS,7S,7aR)-2-n-pentyl-4,7-dimethyl-2,4a,5,6,7,7a-hexahydro-1H-cyclopenta[c]pyridin-1-one], 97.5%.
For `CC1=CN(c2ccccc2)C(=O)[C@H]2[C@@H]1CC[C@@H]2C` [Va, (4aS,7S,7aR)-4,7-dimethyl-2-phenyl-2,4a,5,6,7,7a-hexahydro-1H-cyclopenta[c]pyridin-1-one], the pest or weed control at 10000 µg/mL was 93.1%.
In the case of `CC1=CN(C)C(=O)[C@H]2[C@@H]1CC[C@@H]2C` [IIIa, (4aS,7S,7aR)-2,4,7-trimethyl-2,4a,5,6,7,7a-hexahydro-1H-cyclopenta[c]pyridin-1-one], the pest or weed control at 10000 µg/mL came out at 94.8%.
`C=CCN1C=C(C)[C@H]2CC[C@H](C)[C@H]2C1=O` [IIIj, (4aS,7S,7aR)-2-n-allyl-4,7-dimethyl-2,4a,5,6,7,7a-hexahydro-1H-cyclopenta[c]pyridin-1-one]: the pest or weed control at 10000 µg/mL was found to be 78.1%.
On to `CCN1C=C(C)[C@H]2CC[C@H](C)[C@H]2C1=O` [IIIb, (4aS,7S,7aR)-2-ethyl-4,7-dimethyl-2,4a,5,6,7,7a-hexahydro-1H-cyclopenta[c]pyridin-1-one], for which the pest or weed control at 10000 µg/mL came out at 97.9%.
`CCCCCCCCN1C=C(C)[C@H]2CC[C@H](C)[C@H]2C1=O` [IIIg, (4aS,7S,7aR)-2-n-octyl-4,7-dimethyl-2,4a,5,6,7,7a-hexahydro-1H-cyclopenta[c]pyridin-1-one]: the pest or weed control at 10000 µg/mL is 93.2%.
`CC1=CN(C(C)C)C(=O)[C@H]2[C@@H]1CC[C@@H]2C` [IIIi, (4aS,7S,7aR)-2-n-isopropyl-4,7-dimethyl-2,4a,5,6,7,7a-hexahydro-1H-cyclopenta[c]pyridin-1-one] came in with a pest or weed control at 10000 µg/mL of 94.7%.
As for `CCCCCCN1C=C(C)[C@H]2CC[C@H](C)[C@H]2C1=O` [IIIf, (4aS,7S,7aR)-2-n-hexyl-4,7-dimethyl-2,4a,5,6,7,7a-hexahydro-1H-cyclopenta[c]pyridin-1-one], the figure is 97.2%.
